Key:
[1] = test system: PINK1 knockout derived hippocampal neurons; assay: Mitochondrial motility assay in axons; assay type: cell-based, mouse
Description: (§1) Mitochondrial motility assay: Primary hippocampal neuronal cultures were co-transfected with mitochondrial targeted GFP (mitoGFP) and mCherry-tagged synaptophysin (mCherrySynaptophysin) to allow for the live identification of mitochondria in axons.
(§2) To test if kinetin decreases motility we examined the mobility of axonal mitochondria in hippocampal neurons. Primary hippocampal neuronal cultures were co-transfected with mitoGFP and mCherry-tagged Synaptophysin (mCherrySynaptophysin) to allow for the live identification of mitochondria in axons. […] To test the PINK1 dependency of this process, we treated control mouse C57 (PINK1 wildtype) and PINK1 knockout derived hippocampal neurons with kinetin or 9MK and imaged their mitochondria.

[2] = test system: rat hippocampal neurons; assay: Mitochondrial motility assay in axons; assay type: cell-based; details: 50 μM, 48 hours pre-treatment
Description: as §1, §2

[3] = test system: HeLa cells; assay: Parkin recruitment to depolarized mitochondria in HeLa cells, PINK1 form not stated; assay type: cell-based
Procedure: Parkin phosphorylation and mitochondrial translocation assay: HeLa cells were grown in DMEM supplemented with 10% FBS. Log phase cells were plated in 24 well plates with glass coverslips (Mattek) pretreated with fibronectin. Cells were pretreated with 50 μM of the indicated compound, followed by transfection with MitoGFP, mCherry Parkin, and full length PINK1FLAG3 in a 1:4:2 ratio using Fugene 6 (Promega). Fields of cells were selected by expression of MitoGFP (6 fields/well-3 wells/condition) and imaged at five-minute intervals following depolarization with 5 μM CCCP. Quantification was performed according to published protocols^3 and by creation of a Matlab based script.
Our ability to enhance PINK1 activity in-vitro using KTP led us to investigate means by which to achieve enhanced activity in cells expressing PINK1. […] We treated cells with either kinetin or adenine (FIG. 2A) and measured Parkin localization following mitochondrial depolarization with CCCP (FIG. 2B). HeLa cells, which have low levels of endogenous PINK1 and PARKIN, were transfected with wildtype or PINK1^G309D, mCherryParkin, and mitoGFP. After 48 hours of incubation with 25 μM adenine, kinetin or equivalent DMSO, we imaged CCCP-mediated depolarization of mitochondria (FIGS. 2C, 2D) and calculated the percentage of GFP labelled mitochondria with mCherryParkin associated (FIG. 2E). […]

[4] = molecular target: PINK1^wt (Homo sapiens, UniProt Q9BXM7); assay: PINK1 kinase assay with ATP analogs (autophosphorylation, TRAP1 transphosphorylation); assay type: biochemical, H. sapiens; set-up: kinase domain with c-terminal extension (PINK1, residues 148-581) with a C-terminal FLAG3 tag; made in house; host or cells: baculovirus / Sf21 insect cells; details: for utilization to phosphorylate TRAP1: SF21 expressed PINK1; for transphosphorylation of TRAP1, activity versus ATP: GST tagged kinase domain 156-496 expressed in E. coli
Description: (§3) We expressed both PINK1^wt and PINK1^G309D GST tagged kinase domain (156-496PINK1) in E. coli and performed kinase assays with a series of ATP analogs.
(§4) Expression, purification and enzymatic characterization of PINK1: H. sapiens PINK1 kinase domain (PINK1, residues 156-496) with an N-terminal GST tag was expressed using a pGEX vector using standard techniques. H. sapiens PINK1 kinase domain with c-terminal extension (PINK1, residues 148-581) with a C-terminal FLAG3 tag was co-expressed with full length TRAP1 baculovirus/Sf21 insect cell system. […] The reaction was performed using 50 mM Tris-HCl, 150 mM NaCl, 10 mM MgCl2, 3 mM MnCl2, 0.5 mM DTT and 1 mg/ml substrate if indicated.
(§5) We constructed several FLAG3 tagged truncation variants of PINK1 and induced expression using baculovirus infected SF21 insect cells.
(§6) We expressed GST tagged kinase domain (PINK11156-496) in E. coli and performed a kinase assay.

[5] = molecular target: PINK1^G309D (Homo sapiens, UniProt Q9BXM7, G309D); assay: as above; assay type: biochemical, H. sapiens; set-up: kinase domain with c-terminal extension (PINK1, residues 148-581) with a C-terminal FLAG3 tag; made in house; host or cells: baculovirus / Sf21 insect cells; details: GST tagged kinase domain 156-496 expressed in E. coli
Sequence of PINK1^G309D (Q9BXM7 148-581 G309D): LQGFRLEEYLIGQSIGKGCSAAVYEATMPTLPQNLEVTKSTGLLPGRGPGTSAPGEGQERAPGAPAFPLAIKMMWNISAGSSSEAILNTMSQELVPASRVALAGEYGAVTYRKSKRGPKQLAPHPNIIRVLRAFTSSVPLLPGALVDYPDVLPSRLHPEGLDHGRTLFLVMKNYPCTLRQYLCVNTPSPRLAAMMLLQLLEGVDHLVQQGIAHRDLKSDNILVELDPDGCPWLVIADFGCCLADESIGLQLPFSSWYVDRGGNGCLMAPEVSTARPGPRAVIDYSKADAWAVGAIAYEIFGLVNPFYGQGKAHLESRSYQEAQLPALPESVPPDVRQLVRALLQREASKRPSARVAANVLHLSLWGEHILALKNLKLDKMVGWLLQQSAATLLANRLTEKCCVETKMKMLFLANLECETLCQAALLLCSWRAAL
Description: as §3, §4, §5, §6

[6] = substrate: Nc1ncnc2c1ncn2[C@@H]1O[C@H](COP(=O)(O)OP(=O)(O)OP(=O)(O)O)[C@@H](O)[C@H]1O; assay: purified protein, by the assay type; assay type: biochemical, H. sapiens; details: other: catalytic constants for PINK1, nucleotide as substrate, autophosphorylation, SF21 expressed PINK1 148-581
[7] = catalytic constants for PINK1, nucleotide as substrate, autophosphorylation, SF21 expressed PINK1 148-581

For `Cn1cnc2c(NCc3ccco3)ncnc21` [9-methyl-Kinetin, reference compound], the mitochondrial motility [1] was “no change in motility” and the “mitochondrial movement / motility” value [2] was “did not affect mitochondrial motility”.

`c1ccc(CNc2ncnc3nc[nH]c23)cc1` [N6 benzyl adenine, reference compound] was tested, and the “Parkin recruitment to CCCP depolarized mitochondria” value [3] was “less active than kinetin”.

For `O=P(O)(O)OP(=O)(O)OP(=O)(O)OC[C@H]1O[C@@H](n2cnc3c(NCc4ccccc4)ncnc32)[C@H](O)[C@@H]1O` [N^6 Benzyl, N^6 Benzyl ATP, reference compound], the “utilization to phosphorylate TRAP1” value [4] was “not”.

In the case of `O=P(O)(O)OP(=O)(O)OP(=O)(O)OC[C@H]1O[C@@H](n2cnc3c(NCCc4ccccc4)ncnc32)[C@H](O)[C@@H]1O` [N^6 Phenethyl ATP, reference compound], the “utilization to phosphorylate TRAP1” value [4] is reported as “not”.

N^6 furfuryl ATP [KTP] was tested, and the autophosphorylation [5] was “increased levels of autophosphorylation”, the “transphosphorylation of TRAP1, activity versus ATP” value [5] was “amplified” and the “transphosphorylation of TRAP1, activity versus ATP” value ([5]; listed as N^6 FF ATP) was “increased catalytic rate than ATP”. For the same molecule, the “PINK1 activity stimulation versus other N6 substituted ATP analogs” value ([4]; FIG. 12) was “stimulated”, the “transphosphorylation of TRAP1, activity versus ATP” value [4] was “amplified” and the “transphosphorylation of TRAP1, activity versus ATP” value ([4]; listed as N^6 FF ATP) was “more efficiently than ATP”. The “fold higher Vmax versus ATP” value ([4]; PINK1 autophosphorylation) was 1.84 fold, the “utilization to phosphorylate TRAP1” value [4] was “utilizes” and the Km [4, 7] was 51.7 µM. The Vmax [4, 7] was 0.0098 ± 0.002 min⁻¹.

B1: PINK1^wt (Homo sapiens) (protein)
chain: LQGFRLEEYLIGQSIGKGCSAAVYEATMPTLPQNLEVTKSTGLLPGRGPGTSAPGEGQERAPGAPAFPLAIKMMWNISAGSSSEAILNTMSQELVPASRVALAGEYGAVTYRKSKRGPKQLAPHPNIIRVLRAFTSSVPLLPGALVDYPDVLPSRLHPEGLGHGRTLFLVMKNYPCTLRQYLCVNTPSPRLAAMMLLQLLEGVDHLVQQGIAHRDLKSDNILVELDPDGCPWLVIADFGCCLADESIGLQLPFSSWYVDRGGNGCLMAPEVSTARPGPRAVIDYSKADAWAVGAIAYEIFGLVNPFYGQGKAHLESRSYQEAQLPALPESVPPDVRQLVRALLQREASKRPSARVAANVLHLSLWGEHILALKNLKLDKMVGWLLQQSAATLLANRLTEKCCVETKMKMLFLANLECETLCQAALLLCSWRAAL
notes: kinase domain with c-terminal extension (PINK1, residues 148-581) with a C-terminal FLAG3 tag; made in house; host or cells: baculovirus / Sf21 insect cells
B1 gave a Km [6] of 18.4 µM and a kcat [6] of 0.0053 ± 0.001 min⁻¹.

— patent publication US11427588B2, “Compositions and methods for treating neurodegenerative diseases and cardiomyopathy” (THE REGENTS OF THE UNIVERSITY OF CALIFORNIA, priority 2013, dated 2022)
